# According to patent publication US20240180859A1, “COMPOSITIONS AND METHODS FOR IMMUNE-MEDIATED INFLAMMATORY DISEASES” (Thetis Pharmaceuticals LLC, priority 2022, published 2024):
# Assays:
# [1] = test system: subcutaneous KPC tumors; experiment: RNAseq cell enrichment analysis of tumor samples; type: in vivo, mice; details: Q6D treatment, Day 26, compared to placebo
# Method: RNAseq analysis was performed on tumor samples from mice with subcutaneous KPC tumors sacrificed on Day 26 following treatment (Q6D) with bis RvE1 Mg-di-lysinate (Compound 1) compared to placebo. […] Darker color indicates increased gene expression, for various immune cells and other cells, as listed across the top of the heatmap. The boxed cells shown in FIG. 4 indicate an increase in markers of monocytes and DC cell subset (cDCs, pDCs, and iDCs) and markers of NK, CD8+ T cells, Th1 cells, and memory T cells (CD8+ and CD4+) with Compound 1 treatment. […] Namely, these unexpected results may be due to durable effects on the tumor microenvironment including changes in immune cell phenotype and the T-cell compartment such as T-cell priming and increased tumor-infiltrating lymphocytes.
# [2] = test system: Panc2-H7 cells; experiment: Panc2-H7 model of pancreatic cancer, subcutaneous tumors; type: in vivo, C57BL/6J male mice; details: SC
# Method: (§1) A representative compound of Formula IV, bis RvE1 magnesium di-lysinate (Compound 1), was tested for efficacy in several preclinical mouse models including the Panc2-H7 model of pancreatic cancer, and the MC38 model of colorectal cancer. These models are well established, highly tumorigenic syngeneic models in which murine cancer cell lines are injected subcutaneously (SC) into the dorsum of C57BL/6J mice. If left untreated, these tumors grow rapidly and lead to death or euthanasia, per protocol. As detailed below in Examples 1-4 and the accompanying figures, bis RvE1 Mg-di-lysinate (Compound 1) was unexpectedly effective as an anti-cancer agent in each of these model systems when administered in a less than daily (LTD) dosing regimen. […] Without being bound by any theory, the surprising efficacy of LTD dosing of resolvins in the model systems described here may be the result of durable effects on the inflammatory phenotype of the tumor microenvironment including changes in immune cell phenotype, vascularization, stromal phenotype, and antigen presentation, as well as durable effects on the T-cell compartment such as T-cell priming and increased tumor-infiltrating lymphocytes.
# Based on the previous findings in the MC38 colorectal cancer model with less than daily (LTD) dosing, a study in the Panc2-H7 model was conducted to assess the efficacy of LTD dosing of bis RvE1 Mg-di-lysinate in a different tumor model. A total of forty (40) C57BL/6J male mice were injected subcutaneously with 1×10e6 living Panc2-H7 cells. Once tumors reached 160-320 mm^3 in size, the mice were randomized (n=8 per group) to treatment with vehicle or SC injection with bis RvE1 Mg-di-lysinate at 30 ug/kg and 300 ug/kg (QD, Q7D).
# [3] = test system: MC-38 cells; experiment: MC38 model of colorectal cancer, subcutaneous tumors; type: in vivo, C57BL/6J male mice; details: 300 ug/kg, SC, P<0.05 vs placebo
# Method: as §1, with “lymphocytes. […]” for “lymphocytes.”
# [4] = Subcutaneous PK study of RvE1-Mg-Lys; type: in vivo, C57BL/6J mice; details: 100 or 300 ug/kg subcutaneous injection; baseline to 8 hours
# Method: (§2) In the subcutaneous PK study, sixty-nine (69) C57BL/6J mice were administered 100 or 300 ug/kg doses of RvE1-Mg-Lys via subcutaneous injection. Mice were sacrificed and plasma was drawn at the following timepoints: baseline, 5, 15, 30 min, 1, 2, 4 and 8 hours (n=5 mice per timepoint). In the IV and oral PK studies, one-hundred eighty (180) Balb/c mice were administered RvE1-Na at 1 or 10 mg/kg via subcutaneous injection, IV injection, oral gavage (n=6 mice per timepoint). Plasma and lung tissue were assayed at the following timepoints: 0.25, 0.5, 1, 2, 6, 10 and 24 hours. […] Without being bound by any theory, the surprising efficacy of LTD dosing of resolvins in the cancer model systems described here may be the result of durable effects on the tumor microenvironment including changes in immune cell phenotype, vascularization, stromal phenotype, and antigen presentation, as well as durable effects on the T-cell compartment such as T-cell priming and increased tumor-infiltrating lymphocytes.
# [5] = test system: CD4+ and CD8+ cells in the liver; details: concanavalin A-induced murine model; cited from earlier work
# [6] = test system: polymorphonuclear leukocyte (PMN) recruitment; details: equimolar dose; cited from earlier work
# [7] = PK studies of RvE1-Na (subcutaneous, IV, oral), plasma and lung tissue; type: in vivo, Balb/c mice; details: 0.25-24 hours
# Method: as §2
smiles,measurement,setting,value
"CC[C@@H](O)/C=C/C=C\C[C@@H](O)/C=C/C=C/C=C\[C@@H](O)CCCC(=O)O [Compound 1, bis RvE1 Mg-di-lysinate]","markers of NK, CD8+ T cells, Th1 cells, and memory T cells (CD8+ and CD4+), gene expression",[1],increase
same,"markers of monocytes and DC cell subset (cDCs, pDCs, and iDCs), gene expression",[1],increase
same,"tumor volume (Day 20 vs Day 0), inhibition relative to placebo control","[2]; 30 ug/kg, Q7D",demonstrated inhibition relative to placebo control
same,"tumor volume (Day 20 vs Day 0), inhibition relative to placebo control","[2]; 30 ug/kg, QD",demonstrated inhibition relative to placebo control
same,"tumor volume (Day 20 vs Day 0), inhibition relative to placebo control","[2]; 300 ug/kg, Q7D, P<0.05 vs placebo control",greatest inhibition
same,"tumor volume (Day 20 vs Day 0), inhibition relative to placebo control","[2]; 300 ug/kg, QD",demonstrated inhibition relative to placebo control
same,"tumor volume (Day 15 vs Day 0), efficacy as a single agent vs placebo",[3]; Q3D,effective as a single agent
same,"tumor volume (Day 15 vs Day 0), efficacy as a single agent vs placebo",[3]; QD,effective as a single agent
same,plasma levels of RvE1 over time,[4],rapid depletion
"CC/C=C\C[C@H](O)/C=C/C=C\C=C\C=C\[C@@H](O)[C@@H](O)C/C=C\CCC(=O)O [RvD1, 7S,8R,17S-trihydroxy-4Z,9E,11E,13Z,15E,19Z-docosahexaenoic acid]",levels of CD4+ and CD8+ cells in the liver,[5],markedly downregulated
"CC[C@@H](O)/C=C/C=C\C[C@@H](O)/C=C/C=C/C=C\[C@@H](O)CCCC(=O)O [RvE1, 5S,12R,18R-trihydroxy-6Z,8E,10E,14Z,16E-eicosapentaenoic acid]",levels of CD4+ and CD8+ cells in the liver,[5],markedly downregulated
same,activity in zymosan-induced peritonitis (PMN recruitment),[6],potently reduced
"CCC(=O)/C=C/C=C\C[C@@H](O)/C=C/C=C/C=C\[C@@H](O)CCCC(=O)O [Compound 18-oxo-RvE1, 18-oxo-RvE1]",activity in zymosan-induced peritonitis (PMN recruitment),[6],devoid of activity
CC[C@@H](O)/C=C/C=C\C[C@@H](O)/C=C/C=C/C=C\[C@@H](O)CCCC(=O)[O-].[Na+] [RvE1-Na],plasma and lung tissue levels of RvE1 over time,[7]; 1 or 10 mg/kg IV injection,rapid depletion
same,plasma and lung tissue levels of RvE1 over time,[7]; 1 or 10 mg/kg oral gavage,rapid depletion
same,plasma and lung tissue levels of RvE1 over time,[7]; 1 or 10 mg/kg subcutaneous injection,rapid depletion
